Results: patent publication US20230270804A1, “ANTI-HYPERCHOLESTEROLEMIA COMPOSITION AND A METHOD OF MANUFACTURING THE SAME” (NBI BIOSCIENCES PRIVATE LIMITED, priority 2020, published 2023)

Key:
[1] = Therapeutic study (60 days treatment after 90 days HFD): body weight; type: in vivo, Wistar strain albino rats; settings: in g
Experimental: (§1) Wistar strain albino rats of body weight ranging from 190-225 g were selected for the present study. The temperature and humidity were kept at optimum (22+2° C.; 40-70% and animals were exposed to natural chronological day night cycles. The experiments were carried out in conformity with the Institutional Animal Ethics Committee.
(§2) The 6 groups were as follows: • 1. Normal Control • 2.

[2] = Prophylactic study: organ weights after sacrifice; type: in vivo, Wistar strain albino rats; settings: HFD+normal diet
Experimental: The prophylactic study which lasted 90 days used 6 rats per group. […] The 6 groups were as follows: • 1. Normal Control • 2. High Fat Diet (HFD) 1 ml 1/d+Normal Diet • 3. High Fat Diet (HFD)+Normal Diet+the composition of the present invention (OD) • 4, High Fat Diet (HFD)+Normal Diet+the composition of the present invention (BD) • 5. […] The body weights were recorded to the nearest gram (g) with proper tare to 0.0000 with the subject at steady state on the weighing machine. The same weighing machine was used for all the subjects. The machine was tested with a known set of weights for any error.

[3] = tested on: heart, spleen, lungs, kidney, liver, Aorta; assay: Therapeutic study: histopathology (heart, spleen, lungs, kidney, liver, aorta); type: in vivo
Source text: FIG. 7 depicts the histopathological images of heart. […] FIG. 8 depicts the histopathological images of spleen. […] FIG. 9 depicts the histopathological images of lungs. […] FIG. 10 depicts the histopathological images of kidney. […] FIG. 11 depicts the histopathological images of liver.
The long-term rise in the electrolyte such as Na and are associated with blood pressure disorders impacting the heart.

[4] = Prophylactic study: HbA1c / blood glucose level; type: in vivo, Wistar strain albino rats; settings: HFD fed groups
[5] = Prophylactic study (90 days): body weight; type: in vivo, Wistar strain albino rats; settings: for Average Body Weight: HFD+normal diet
Experimental: as §1, §2

[6] = tested on: hypercholesterolemia induced wistar rat's models; assay: Prophylactic study: lipid profile (TC, TG, HDL-C, LDL-C, VLDL); type: in vivo, Wistar strain albino rats; settings: for HDL-C / LDL-C / TC / TG / VLDL: HFD+normal diet
Experimental: as §1, §2
(§3) 1.5-2 ml blood sample was taken from retino-orbital chamber in vials for biochemical estimations at every 15 days. Investigations performed included detailed Total Cholesterol—TC (mg/dl), Triglyceride—TG (mg/dl), High Density Lipoprotein—HDL-C (mg/dl), Low Density Lipoprotein—LDL-C (mg/dl), Very Low-Density Lipoprotein—VLDL (mg/dl), WBC (10^3/u1), RBC (10^6/u1), Hb (g/dl), PCV (%), Reticulocyte (%), Platelet count 10^5/mm^3, Clotting time (Sec), Neutrophils, Lymphocyte, Monocyte and Eosinophil. The estimations were done with Ecoline kits from Erba Mannheim, ERBA diagnostics Mannheml, Germany using Semi Autoanalyzer RX50 of MicroLabs Instruments and COUNCELL21 of Tulip Diagnostics Pvt. Ltd. Lipid peroxidation (Plasma & Liver), HMG Co-Reductase, Creatine phosphokinase (CPK), Lactate dehydrogenase (LDH), SGOT and SGPT were estimated at the end of both the studies using the kits.

[7] = tested on: hypercholesterolemia induced wistar rats' models; assay: Therapeutic study: lipid profile (TC, TG, HDL-C, LDL-C, VLDL); type: in vivo, Wistar strain albino rats
Experimental: as §1, §2, §3

CC(C)c1c(C(=O)Nc2ccccc2)c(-c2ccccc2)c(-c2ccc(F)cc2)n1CC[C@@H](O)C[C@@H](O)CC(=O)O [Statin, Atorvastatin]
Average Body Weight ([1]; HFD continued, day 0): 275.33 ± 7.09 | Average Body Weight ([1]; HFD continued, day 15): 270.67 ± 7.37 | Average Body Weight ([1]; HFD continued, day 30): 268.33 ± 2.52 | Average Body Weight ([1]; HFD continued, day 45): 265.67 ± 6.51 | Average Body Weight ([1]; HFD continued, day 60): 262.33 ± 7.15 | Average Body Weight ([1]; HFD discontinued, day 0): 270.33 ± 8.74 | Average Body Weight ([1]; HFD discontinued, day 30): 264.33 ± 3.06 | Average Body Weight ([1]; HFD discontinued, day 45): 263.00 ± 5.57 | Average Body Weight ([1]; HFD discontinued, day 60): 259.83 ± 6.27 | Heart weight [2]: 2.79 ± 0.03 g/100 g bd · wt | Intestine weight [2]: 3.54 ± 0.03 | Kidney weight [2]: 1.15 ± 0.03 g/100 g bd · wt | Liver weight [2]: 3.90 ± 0.05 g/100 g bd · wt | Lungs weight [2]: 1.96 ± 0.02 g/100 g bd · wt | Spleen weight [2]: 0.65 ± 0.03 | pancreas weight [2]: 0.90 ± 0.05 g/100 g bd · wt | histopathology of heart ([3]; HFD): cardiac muscle were found stressed | aorta plaque reduction ([3]; HFD continued): mild | aorta plaque reduction ([3]; HFD discontinued): moderate reduction in the plaque | damage to the endothelial lining ([3]; aorta histopathology): mild damage to the endothelial lining | Blood glucose level [4]: able to maintain Blood glucose level similar to normal diet group | Average Body Weight ([5]; day 0): 209.83 ± 26.39 gms | Average Body Weight ([5]; day 15): 213.16 ± 27.47 gms | Average Body Weight ([5]; day 30): 209.10 ± 20.10 gms | Average Body Weight ([5]; day 45): 223.83 ± 28.41 gms | Average Body Weight ([5]; day 60): 222.6 ± 17.46 gms | Average Body Weight ([5]; day 75): 223.05 ± 8.08 gms | Average Body Weight ([5]; day 90): 229.72 ± 6.13 gms | maintenance of body weight ([5]; prophylactic study, after HFD treatment): not able to maintain the body weight | HDL-C ([6]; day 0): 34.60 ± 1.50 mg/dL | LDL-C ([6]; day 0): 47.10 ± 1.25 mg/dL | TC ([6]; day 0): 81.95 ± 1.35 mg/dL | TG ([6]; day 0): 16.75 ± 1.10 mg/dL | VLDL ([6]; day 0): 2.48 ± 0.15 mg/dL | HDL-C ([6]; day 15): 31.56 ± 1.26 mg/dL | LDL-C ([6]; day 15): 48.68 ± 0.29 mg/dL | TC ([6]; day 15): 85.24 ± 1.55 mg/dL | VLDL ([6]; day 15): 2.86 ± 0.35 mg/dL | HDL-C ([6]; day 30): 35.66 ± 2.08 mg/dL | LDL-C ([6]; day 30): 56.60 ± 4.50 mg/dL | TC ([6]; day 30): 85.66 ± 4.04 mg/dL | TG ([6]; day 30): 22.66 ± 3.10 mg/dL | VLDL ([6]; day 30): 2.96 ± 0.02 mg/dL | HDL-C ([6]; day 45): 38.33 ± 5.85 mg/dL | LDL-C ([6]; day 45): 57 ± 4.0 mg/dL | TC ([6]; day 45): 87.5 ± 5.04 mg/dL | TG ([6]; day 45): 24.86 ± 4.20 mg/dL | VLDL ([6]; day 45): 3.03 ± 0.19 mg/dL | HDL-C ([6]; day 60): 39.60 ± 5.57 mg/dL | LDL-C ([6]; day 60): 57.23 ± 4.43 mg/dL | TC ([6]; day 60): 88.5 ± 4.44 mg/dL | TG ([6]; day 60): 24.4 ± 4.61 mg/dL | VLDL ([6]; day 60): 3.0 ± 0.13 mg/dL | HDL-C ([6]; day 75): 33.53 ± 1.92 mg/dL | LDL-C ([6]; day 75): 55.27 ± 4.39 mg/dL | TC ([6]; day 75): 90.95 ± 2.05 mg/dL | TG ([6]; day 75): 22.67 ± 4.16 mg/dL | VLDL ([6]; day 75): 2.98 ± 0.84 mg/dL | HDL-C ([6]; day 90): 34.26 ± 1.26 mg/dL | LDL-C ([6]; day 90): 52.83 ± 1.76 mg/dL | TC ([6]; day 90): 90.22 ± 2.10 mg/dL | TG ([6]; day 90): 21.93 ± 3.90 mg/dL | VLDL ([6]; day 90): 3.12 ± 0.79 mg/dL | increase in TC ([6]; prophylactic study, after HFD diet treatment): 10% | HDL-C ([7]; HFD continued, day 0): 40.33 ± 2.08 mg/dL | LDL-C ([7]; HFD continued, day 0): 91.67 ± 3.06 mg/dL | TC ([7]; HFD continued, day 0): 139.67 ± 4.04 mg/dL | TG ([7]; HFD continued, day 0): 38.67 ± 2.08 mg/dL | VLDL ([7]; HFD continued, day 0): 3.87 ± 0.31 mg/dL | HDL-C ([7]; HFD continued, day 15): 40.83 ± 1.15 mg/dL | LDL-C ([7]; HFD continued, day 15): 92.83 ± 3.82 mg/dL | TC ([7]; HFD continued, day 15): 138.00 ± 4.00 mg/dL | TG ([7]; HFD continued, day 15): 38.00 ± 1.80 mg/dL | HDL-C ([7]; HFD continued, day 30): 42.45 ± 0.44 mg/dL | LDL-C ([7]; HFD continued, day 30): 91.33 ± 0.21 mg/dL | TC ([7]; HFD continued, day 30): 134.00 ± 3.00 mg/dL | TG ([7]; HFD continued, day 30): 37.30 ± 0.44 mg/dL | VLDL ([7]; HFD continued, day 30): 3.91 ± 0.05 mg/dL | HDL-C ([7]; HFD continued, day 45): 40.20 ± 2.07 mg/dL | LDL-C ([7]; HFD continued, day 45): 90.37 ± 0.85 mg/dL | TC ([7]; HFD continued, day 45): 126.33 ± 4.51 mg/dL | TG ([7]; HFD continued, day 45): 34.73 ± 1.37 mg/dL | VLDL ([7]; HFD continued, day 45): 3.86 ± 0.11 mg/dL | HDL-C ([7]; HFD continued, day 60): 39.82 ± 1.88 mg/dL | LDL-C ([7]; HFD continued, day 60): 89.52 ± 1.20 mg/dL | TC ([7]; HFD continued, day 60): 125.15 ± 4.20 mg/dL | TG ([7]; HFD continued, day 60): 34.41 ± 1.26 mg/dL | VLDL ([7]; HFD continued, day 60): 3.82 ± 0.10 mg/dL | HDL-C ([7]; HFD discontinued, day 0): 41.67 ± 1.53 mg/dL | LDL-C ([7]; HFD discontinued, day 0): 90.67 ± 3.21 mg/dL | TC ([7]; HFD discontinued, day 0): 134.33 ± 4.04 mg/dL | TG ([7]; HFD discontinued, day 0): 38.33 ± 2.52 mg/dL | VLDL ([7]; HFD discontinued, day 0): 3.83 ± 0.38 mg/dL | HDL-C ([7]; HFD discontinued, day 15): 40.17 ± 0.58 mg/dL | LDL-C ([7]; HFD discontinued, day 15): 90.60 ± 3.55 mg/dL | TC ([7]; HFD discontinued, day 15): 133.00 ± 4.58 mg/dL | TG ([7]; HFD discontinued, day 15): 37.50 ± 2.00 mg/dL | VLDL ([7]; HFD discontinued, day 15): 3.91 ± 0.34 mg/dL | HDL-C ([7]; HFD discontinued, day 30): 41.23 ± 0.38 mg/dL | LDL-C ([7]; HFD discontinued, day 30): 85.03 ± 0.21 mg/dL | TC ([7]; HFD discontinued, day 30): 129.33 ± 2.08 mg/dL | TG ([7]; HFD discontinued, day 30): 35.97 ± 0.74 mg/dL | VLDL ([7]; HFD discontinued, day 30): 3.88 ± 0.04 mg/dL | HDL-C ([7]; HFD discontinued, day 45): 39.70 ± 0.46 mg/dL | TC ([7]; HFD discontinued, day 45): 117.67 ± 6.66 mg/dL | TG ([7]; HFD discontinued, day 45): 34.53 ± 0.83 mg/dL | VLDL ([7]; HFD discontinued, day 45): 3.69 ± 0.05 mg/dL | HDL-C ([7]; HFD discontinued, day 60): 38.94 ± 0.82 mg/dL | LDL-C ([7]; HFD discontinued, day 60): 83.69 ± 1.18 mg/dL | TC ([7]; HFD discontinued, day 60): 116.49 ± 6.04 mg/dL | TG ([7]; HFD discontinued, day 60): 34.19 ± 0.83 mg/dL | level of HDL ([7]; therapeutic study, 60 days): 39 mg/dL | reduction in LDL ([7]; therapeutic study, 60 days): 8% | reduction in total cholesterol ([7]; therapeutic study, 60 days): 13%
